Source: patent US11369614B2, “Telodendrimers with riboflavin moieties and nanocarriers and methods of making and using same” (priority 2017, dated 2022)

System: SKOV3 xenograft tumor
Test: In vivo and ex vivo tumor targeting by fluorescence imaging
Design: species or system nude mice
Conditions: i.v.
Protocol: Raji lymphoma, MDA-MB-231, and SKOV3 xenograft tumor bearing mice model were established by subcutaneous injection of 1×10^7 cells in 100 μL of Matrigel and PBS (1:1 v/v) at the right or left flank of female nude mice aged 4-6 weeks. […] Then the DiD-DOX co-loaded Rf-containing nanoformulations were filtered with 0.22 am sterile filter. Free DiD in PBS was used as the control group. All the formulations were intravenously injected through tail vein. The mice were anaesthetized and imaged by IVIS® (In vivo Imaging System) 200 (perkinElmer) at 0.5, 1, 2, 4, 8, 24, 48, 72 h different time points with the ex/em 625/700 nm. Finally, the mice were euthanized, tumor and all the major organs were taken out for ex vivo imaging. Living Image software (Caliper Life Sciences) were used to define and measure the fluorescence intensity in the place of interest.
Mice were euthanized in the following day. […] The nuclei were stained by DAPI.

SMILES: CCCCCCCCCCCCCCCCCCN1/C(=C/C=C/C=C/C2=[N+](CCCCCCCCCCCCCCCCCC)c3ccccc3C2(C)C)C(C)(C)c2ccccc21.[O-][Cl+3]([O-])([O-])[O-] [free DiD, 1,1′-dioctadecyl-3,3,3,3′,3′-tetramethylindodicarbocyanine perchlorate]
- tumor accumulation (in vivo imaging): No specific tumor accumulation
